Test systems include NCI/ADR-RES; RPMI-8226; NCI-H226; RXF 393; K562; SK-MEL-28; MOLT-4; HOP-92; OVCAR-8; IGROV-1; HCT-116; Malme-3M; NCI-H522; A498; SK-MEL-5; UACC-257; LOX IMVI; SK-MEL-2; SW-620; SNB-19.
Holding throughout (assay): inhibition of tumour cell growth, NCI panel, 48 h

The source of these data is ChEMBL document CHEMBL1201862, “PubChem BioAssay data set” (2004).

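96-well plates; 48 h exposure; 5 concentrations. Endpoints by linear interpolation between flanking doses. Not reached: highest tested concentration assigned. Here, GI50 denotes the concentration required for 50% inhibition of growth.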 Active and inactive are the calls of the source. Cut-off read from the data, not from the text of the source: active = GI50 up to about 1.1 µM and inactive = higher.

In the case of `Cc1cn(C2CCN(CC3COC(C)(C)O3)O2)c(=O)[nH]c1=O` (configuration not stated), the GI50 in the assay with NCI/ADR-RES, in the assay on RPMI-8226, in the assay with NCI-H226, with RXF 393, in the assay with K562 and in the assay on SK-MEL-28 was > 100 µM (inactive) each time. Further, the GI50 in the assay with MOLT-4, in the assay on HOP-92, in the assay on OVCAR-8, with IGROV-1, in the assay with HCT-116 and in the assay on Malme-3M was > 100 µM (inactive) throughout. The GI50 in the assay with NCI-H522, in the assay on A498, in the assay on SK-MEL-5, in the assay on UACC-257, with LOX IMVI and with SK-MEL-2 was > 100 µM (inactive) in each case. Moreover, the GI50 in the assay on SW-620 was > 100 µM (inactive).

On to `N#CC1(C#N)N[C@@H](c2ccsc2)[C@H]2C(=O)N(c3ccccc3)C(=O)[C@H]21`, for which the GI50 in the assay on NCI/ADR-RES is > 100 µM (inactive); in the assay on RPMI-8226, 18.7 µM (inactive); with NCI-H226, > 100 µM (inactive); in the assay on RXF 393, 70.3 µM (inactive); with K562, 51.9 µM (inactive); with SK-MEL-28, 77.8 µM (inactive). Moreover, the GI50 in the assay on MOLT-4 was 36.7 µM (inactive); with HOP-92 it was 65.2 µM (inactive); in the assay with OVCAR-8 it was > 100 µM (inactive); in the assay with IGROV-1, 60.7 µM (inactive); with HCT-116 it was 79.1 µM (inactive); in the assay on Malme-3M, > 100 µM (inactive). The GI50 is > 100 µM (inactive) in the assay on NCI-H522; 26.4 µM (inactive) in the assay with A498; 35.4 µM (inactive) in the assay on SK-MEL-5; 29.6 µM (inactive) in the assay on UACC-257; 37.3 µM (inactive) in the assay on LOX IMVI; > 100 µM (inactive) in the assay on SK-MEL-2. Also, in the assay with SW-620, the GI50 is > 100 µM (inactive).

Regarding `Cc1c(Cl)nc(Nc2nc3ccccc3[nH]2)nc1Cl`, the GI50 in the assay with NCI/ADR-RES, in the assay with RPMI-8226, in the assay with SNB-19, in the assay on NCI-H226, with RXF 393 and in the assay with K562 was > 100 µM (inactive) each time. Also, the GI50 in the assay on SK-MEL-28 is 40 µM (inactive); in the assay with MOLT-4 it was > 100 µM (inactive); in the assay on HOP-92, 2.06 µM (inactive); in the assay on OVCAR-8, 41.7 µM (inactive); in the assay with IGROV-1, 36.2 µM (inactive); in the assay on HCT-116, > 100 µM (inactive). Further, the GI50 is > 100 µM (inactive) in the assay on Malme-3M; 89.5 µM (inactive) with NCI-H522; > 100 µM (inactive) in the assay with A498; > 100 µM (inactive) in the assay on SK-MEL-5; > 100 µM (inactive) with UACC-257; > 100 µM (inactive) in the assay on SK-MEL-2. Moreover, the GI50 in the assay on SW-620 was 31.2 µM (inactive).

Take `C[n+]1c2ccccc2n2c3ccccc3c(NCCCn3ccnc3)c(C#N)c21`: the GI50 with NCI/ADR-RES was > 42 µM (inactive); in the assay with RPMI-8226, 1.22 µM (inactive); in the assay with SNB-19 it was 4.01 µM (inactive); in the assay with NCI-H226, 2.85 µM (inactive); in the assay on RXF 393, 0.923 µM (active); in the assay on K562, 2.39 µM (inactive). For the same compound, the GI50 is 3.48 µM (inactive) with SK-MEL-28; 0.533 µM (active) with MOLT-4; 3.15 µM (inactive) with HOP-92; 1.55 µM (inactive) in the assay with OVCAR-8; 1.08 µM (active) with HCT-116; 1.9 µM (inactive) with Malme-3M. The GI50 in the assay on NCI-H522 was 0.575 µM (active); in the assay on A498, 13.4 µM (inactive); with SK-MEL-5, 3.09 µM (inactive); in the assay on UACC-257 it was 3.85 µM (inactive); in the assay on LOX IMVI, 1.49 µM (inactive); with SK-MEL-2, 1.62 µM (inactive). In addition, in the assay on SW-620, the GI50 is 1.49 µM (inactive).

For the compound `Nc1ccn(C2OC(CO)C(O)C2(F)F)c(=O)n1` (configuration not stated), the GI50 with NCI/ADR-RES is 0.0755 µM (active); in the assay with RPMI-8226, 0.281 µM (active); in the assay with SNB-19 it was 0.129 µM (active); with NCI-H226, 0.706 µM (active); in the assay on RXF 393, 0.214 µM (active); with K562, 0.325 µM (active). Moreover, the GI50 in the assay on MOLT-4 is 0.091 µM (active); with HOP-92, 0.462 µM (active); in the assay with OVCAR-8, 0.051 µM (active); with IGROV-1 it was 0.301 µM (active); in the assay on HCT-116, 0.0579 µM (active); in the assay with Malme-3M, 0.63 µM (active). In addition, the GI50 with NCI-H522 is 0.318 µM (active); in the assay on A498, 0.186 µM (active); in the assay on SK-MEL-5 it was 0.436 µM (active); in the assay with UACC-257, 0.312 µM (active); with LOX IMVI it was 0.157 µM (active); in the assay with SW-620, 0.759 µM (active).

In the case of `CCOC(=O)c1c(NC(=O)Nc2ccccc2)c(C(N)=O)c2n1CCCCC2`, the GI50 in the assay with NCI/ADR-RES, in the assay on RPMI-8226, in the assay on SNB-19, with NCI-H226, in the assay on RXF 393 and in the assay with K562 was > 100 µM (inactive) in each case. In addition, the GI50 in the assay with SK-MEL-28, with MOLT-4, in the assay on HOP-92, in the assay with OVCAR-8, in the assay on IGROV-1 and in the assay on HCT-116 was > 100 µM (inactive) in each case. The GI50 in the assay with A498, in the assay on SK-MEL-5, with UACC-257, in the assay with LOX IMVI, in the assay on SK-MEL-2 and in the assay with SW-620 was > 100 µM (inactive) throughout.

Turning to `COc1cc(C2S/C(=C/c3ccccc3)C(=O)N2c2cccc(NC(C)=O)c2)cc(OC)c1OC` (configuration not stated), the GI50 in the assay on NCI/ADR-RES is 27.9 µM (inactive); with SNB-19, 58.7 µM (inactive); in the assay on NCI-H226, > 100 µM (inactive); in the assay with RXF 393, 28.8 µM (inactive); with K562 it was 39.5 µM (inactive); in the assay on SK-MEL-28, 90.2 µM (inactive). Further, the GI50 was 30.6 µM (inactive) in the assay on MOLT-4; 16.4 µM (inactive) with HOP-92; 29.9 µM (inactive) with OVCAR-8; 17.2 µM (inactive) in the assay with HCT-116; 23.4 µM (inactive) with Malme-3M; 13.5 µM (inactive) in the assay on NCI-H522. Further, the GI50 in the assay with A498 is 32.5 µM (inactive); with SK-MEL-5, 35.2 µM (inactive); with UACC-257 it was 66.2 µM (inactive); in the assay with LOX IMVI, 21.5 µM (inactive).

In the case of `O=C1/C(=C\c2cccc(Oc3ccccc3)c2)SC(c2ccccc2)N1Cc1ccccc1` (configuration not stated), the GI50 is 20.4 µM (inactive) in the assay with NCI/ADR-RES; 24.3 µM (inactive) with RPMI-8226; 24.7 µM (inactive) in the assay on SNB-19; 22.6 µM (inactive) with NCI-H226; 20.1 µM (inactive) with RXF 393; 29.9 µM (inactive) in the assay with K562. Further, the GI50 is 29.6 µM (inactive) in the assay on SK-MEL-28; 30.1 µM (inactive) in the assay on MOLT-4; 19 µM (inactive) with HOP-92; 22.4 µM (inactive) with OVCAR-8; 14.9 µM (inactive) in the assay on HCT-116; 22.2 µM (inactive) in the assay on Malme-3M. For the same compound, the GI50 is 18.2 µM (inactive) in the assay with NCI-H522; 37.7 µM (inactive) in the assay with A498; 14.8 µM (inactive) in the assay on SK-MEL-5; 26.6 µM (inactive) in the assay with UACC-257; 15.5 µM (inactive) in the assay with LOX IMVI; 18.2 µM (inactive) in the assay with SK-MEL-2. In addition, the GI50 with SW-620 is 38.3 µM (inactive).

In the case of `CC(=O)O[C@H]1C[C@]2(C)C(CCC3O[C@@]32C)[C@@]2(CC(c3ccoc3)OC2O)[C@@H]1C` (some centres not stated), the GI50 in the assay on NCI/ADR-RES is > 100 µM (inactive); in the assay on RPMI-8226, 28.9 µM (inactive); with SNB-19, > 100 µM (inactive); with NCI-H226, > 100 µM (inactive); in the assay with RXF 393, > 100 µM (inactive); in the assay with K562, 35.8 µM (inactive). Moreover, the GI50 with SK-MEL-28 was > 100 µM (inactive); in the assay on MOLT-4, 29.6 µM (inactive); in the assay on HOP-92 it was > 100 µM (inactive); in the assay with OVCAR-8, > 100 µM (inactive); with IGROV-1, > 100 µM (inactive); in the assay on HCT-116, 60.8 µM (inactive). For the same compound, the GI50 in the assay on NCI-H522 is 44.3 µM (inactive); with A498, > 100 µM (inactive); in the assay with SK-MEL-5, 50 µM (inactive); with UACC-257, 63.4 µM (inactive); with LOX IMVI, 78.3 µM (inactive); in the assay with SK-MEL-2 it was > 100 µM (inactive). Further, the GI50 with SW-620 is > 100 µM (inactive).

Turning to `Cc1cc(O)c(C(C)C)cc1SC#N`, the GI50 in the assay on NCI/ADR-RES was 19.2 µM (inactive); in the assay with RPMI-8226, 2.16 µM (inactive); in the assay with RXF 393, 15.5 µM (inactive); in the assay with K562, 6.3 µM (inactive); with SK-MEL-28, 17.4 µM (inactive); with MOLT-4, 3.15 µM (inactive). For the same compound, the GI50 with HOP-92 is 10.7 µM (inactive); with OVCAR-8, 17.7 µM (inactive); in the assay with IGROV-1 it was 16.9 µM (inactive); with Malme-3M, 17.4 µM (inactive); with NCI-H522, 5.46 µM (inactive); in the assay on A498, 17.1 µM (inactive). Also, the GI50 with SK-MEL-5 was 19.6 µM (inactive); in the assay with UACC-257, 16.6 µM (inactive); in the assay with LOX IMVI it was 11.9 µM (inactive); with SK-MEL-2, 18.2 µM (inactive); in the assay on SW-620, 17.3 µM (inactive).

In the case of `COc1cc(O)c2c(c1)C(=O)c1cc3c(c(O)c1C2=O)C(OC1OC(C)C(O)C(O)C1OC)C(OC)C(C)(O)C3=O` (configuration not stated), the GI50 with NCI/ADR-RES was 3.48 µM (inactive); in the assay on SNB-19, 2.94 µM (inactive); in the assay on NCI-H226 it was 3.48 µM (inactive); with RXF 393, 1.22 µM (inactive); in the assay with HOP-92, 0.436 µM (active); in the assay with IGROV-1 it was 2.52 µM (inactive). Besides, the GI50 is 0.893 µM (active) in the assay with Malme-3M; 1.93 µM (inactive) with NCI-H522; 2.04 µM (inactive) in the assay on A498; 0.865 µM (active) in the assay on SK-MEL-5; 0.723 µM (active) with UACC-257; 2 µM (inactive) in the assay on LOX IMVI. Also, the GI50 in the assay with SK-MEL-2 was 3.65 µM (inactive); with SW-620, 1.08 µM (active).
